Test systems include M19-MEL melanoma; DMS 273 small cell lung; KM20L2 colon; SNB-78 CNS; RXF-631 renal; XF 498 CNS; P388 leukemia; SN12K1 renal; P388/ADR leukemia.
Holding throughout (assay): NCI tumour cell line growth inhibition, 48 h

The structures appear in SMILES notation.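 Growth conditions: 96-well plates. Treatment: test compound, 48 hours, 5 concentrations. Analysis: linear interpolation between bracketing concentrations; unreached endpoints set to highest concentration. At the TGI there is no net growth.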

Regarding `COc1ccc(/C=N/NC(=O)NCCNCCO)cc1`, the TGI in the test on M19-MEL melanoma, with DMS 273 small cell lung, in the test with KM20L2 colon and with SNB-78 CNS was over 100 µM each time.
As for `Cc1c2cc[n+](C)cc2c(C)c2c1[nH]c1ccc(OC(C)(C)C)cc12`, the TGI in the test on M19-MEL melanoma, in the test on DMS 273 small cell lung and in the test with SNB-78 CNS was over 100 µM throughout.
Regarding `O=C(C#Cc1ccccc1)Nc1ccccc1CC(c1c[nH]c2ccccc12)c1c[nH]c2ccccc12`, the TGI was 47.8 µM with M19-MEL melanoma; 74.6 µM in the test with RXF-631 renal; 38.8 µM with DMS 273 small cell lung; 97.6 µM in the test with SNB-78 CNS; 70 µM with XF 498 CNS.
As for `Nc1nc2c(nnn2C2C=C(CO)C(O)C2O)c(=O)[nH]1` (stereo not given), the TGI in the test with M19-MEL melanoma, in the test with DMS 273 small cell lung, in the test on KM20L2 colon, with SNB-78 CNS and with XF 498 CNS was over 100 µM each time.
Turning to `C#CCN(Cc1ccc2nc(-c3ccccc3)c(Cl)nc2c1)c1ccc(Cl)c(Cl)c1`, the TGI with M19-MEL melanoma, in the test on DMS 273 small cell lung, with KM20L2 colon, with SNB-78 CNS and with XF 498 CNS was over 100 µM each time.
For `CCN1CC2(CO)CCC(OC)C34C5CC6C(OC)CC(O)(C5C6OC)C(O)(C(OC)C23)C14` (stereo not given), the TGI with P388 leukemia was over 174 µM; in the test with M19-MEL melanoma, over 375 µM; in the test on SN12K1 renal, over 375 µM; with DMS 273 small cell lung it was over 375 µM; in the test with KM20L2 colon, over 375 µM; in the test with SNB-78 CNS, over 375 µM. Further, the TGI in the test on P388/ADR leukemia is over 80.8 µM; with XF 498 CNS, over 375 µM.
Take `Cn1cnc([N+](=O)[O-])c1Sc1nnc(-c2ccc(Cl)cc2)n1C`: the TGI in the test on M19-MEL melanoma stood at 27.5 µM; in the test with RXF-631 renal, 30.9 µM; in the test on DMS 273 small cell lung, 36 µM; with SNB-78 CNS, 31.9 µM.
Take `CCN(CC)CCNC(=O)C1COc2ccc(-c3cc(=O)c4ccccc4o3)cc2O1` (stereo not given): the TGI is 21.7 µM with P388 leukemia; 32.5 µM in the test with M19-MEL melanoma; 31.1 µM in the test on SN12K1 renal; 42.3 µM in the test with DMS 273 small cell lung; 39 µM in the test with KM20L2 colon; 38.6 µM with SNB-78 CNS. For the same compound, the TGI was 37.1 µM in the test with P388/ADR leukemia and 37.3 µM with XF 498 CNS.
For the compound `CCOC1=C2N=C(C(CC)c3ccc(F)cc3)N=C2C(=O)c2ccccc21` (stereo not given), the TGI is over 59.4 µM in the test with M19-MEL melanoma; over 72.1 µM with DMS 273 small cell lung; 50.7 µM in the test on KM20L2 colon; 89.8 µM in the test with SNB-78 CNS; 40.1 µM in the test with XF 498 CNS.
As for `C#CCN1C(=O)CN2C(Cl)(Cl)C2(c2ccccc2)c2cc(Cl)ccc21` (stereo not given), the TGI in the test with M19-MEL melanoma, in the test on DMS 273 small cell lung and with KM20L2 colon was over 100 µM each time.
For the compound `Nc1ccc2ncc(NCc3ccc(F)cc3)nc2c1`, the TGI with M19-MEL melanoma is over 100 µM; with DMS 273 small cell lung, over 100 µM; in the test on KM20L2 colon it was over 100 µM; in the test on SNB-78 CNS it was over 100 µM; with XF 498 CNS, 86.1 µM.
Regarding `O=C1C(Nc2ccc(S(=O)(=O)Nc3cnc4ccccc4n3)cc2)=CC(=Nc2ccc(S(=O)(=O)Nc3cnc4ccccc4n3)cc2)c2ccccc21`, the TGI in the test on M19-MEL melanoma was 30.8 µM; in the test on DMS 273 small cell lung it was 24.4 µM; in the test with KM20L2 colon, 32 µM; with SNB-78 CNS, 47.3 µM; in the test on XF 498 CNS it was 59.2 µM.
As for `O=C1C2=C(c3ccccc31)C(c1ccc([N+](=O)[O-])cc1)NC(=S)N2` (stereo not given), the TGI in the test on M19-MEL melanoma, in the test on RXF-631 renal, in the test on DMS 273 small cell lung, in the test on KM20L2 colon and with XF 498 CNS was over 100 µM throughout.
For the compound `Cc1ccc(C2=C(c3ccccc3)C(O)(c3ccccc3)C(c3ccccc3)=C2c2ccc(C)cc2)cc1`, the TGI in the test with M19-MEL melanoma, with RXF-631 renal, with KM20L2 colon, in the test on SNB-78 CNS and with XF 498 CNS was over 100 µM throughout.
Turning to `CC(C)C(N=C1CC2CCC1(C(=O)Nc1ccccc1O)C2(C)C)c1ccccc1` (stereo not given), the TGI in the test on M19-MEL melanoma, in the test with RXF-631 renal, in the test on DMS 273 small cell lung, in the test on KM20L2 colon, with SNB-78 CNS and in the test on XF 498 CNS was over 10 µM each time.
In the case of `O/N=C1/C(=C/c2ccc(Br)cc2)CCCC1C(NO)c1ccc(Br)cc1` (stereo not given), the TGI in the test on M19-MEL melanoma worked out at 32.1 µM; with RXF-631 renal, 30.8 µM; in the test with DMS 273 small cell lung it was 25.8 µM; with KM20L2 colon, 32.5 µM; in the test with SNB-78 CNS, 32.6 µM.
On to `CC(=O)Nc1ccc(S(=O)(=O)Nc2cnc3ccccc3n2)cc1`, for which the TGI in the test with M19-MEL melanoma, in the test with DMS 273 small cell lung, with KM20L2 colon and in the test on XF 498 CNS was over 100 µM throughout.
Take `c1ccc(C2SCc3nc4ccccc4n32)cc1` (stereo not given): the TGI in the test on M19-MEL melanoma is over 100 µM; in the test on DMS 273 small cell lung it was over 100 µM; with KM20L2 colon it was over 100 µM; with SNB-78 CNS, over 100 µM; in the test on XF 498 CNS, 95.4 µM.
As for `N#Cc1cc([N+](=O)[O-])ccc1NC(=O)C(=O)Nn1c(=S)[nH]c2ccccc2c1=O`, the TGI in the test on M19-MEL melanoma, in the test on RXF-631 renal, with KM20L2 colon, in the test with SNB-78 CNS and with XF 498 CNS was over 100 µM throughout.
As to `COc1ccc(/C=C2\CCC(C)(CN(C)C)C2=O)cc1Br` (stereo not given), the TGI with M19-MEL melanoma was found to be 32.4 µM; in the test on DMS 273 small cell lung it was 32.2 µM; with KM20L2 colon, 17.7 µM; in the test with SNB-78 CNS it was 86 µM; in the test on XF 498 CNS, 33.1 µM.

The record behind these values is PubChem BioAssay (NCI).
